A short description of data set [1]: Solubility studies using micronized glibenclamide: unbuffered saline. In kind it is physicochemical. The conditions noted are these: thermodynamic from solid. An excerpt: This was done iteratively until pH was stable. “GLB” indicates glibenclamide.
The nature of data set [2]: Solubility studies using micronized glibenclamide: unbuffered 2% sucrose and water. It is filed as physicochemical. The conditions noted are these: for GLB mg/ml (glibenclamide in solution): 2% sucrose in water; for solubility: aqueous buffer, thermodynamic from solid, water without bulking agent. The protocol:
Micronized glibenclamide in 2% sucrose (as a proxy for glucose, fructose, mannose, galactose, mannitol, sorbitol, lactose, trehalose, and other sugars, including mono-saccharides, di-saccharides) in water was prepared, as recorded in the left-hand column of Table 4. In addition, micronized glibenclamide was prepared in water without a bulking agent (see Table 4, right column). These were unbuffered solutions, so that 1) pH was adjusted to the target value, then 2) glibenclamide was added (which lowered the pH) and then 3) pH was re-adjusted up to the target. This was done iteratively until the pH was stable.

The conditions of data set [3]: 0.1 M, pH 10 phosphate-buffered aqueous solution (300 mOsm/L); cited from earlier work.
Data set [4] in a line: Solubility of glibenclamide in buffered water solutions (Britton Robinson). In kind it is physicochemical. An excerpt:
Buffered water solutions (Britton Robinson buffers) were used to determine the amounts of glibenclamide soluble in buffered solutions without added salt or added sugar.

For data set [5] the following is noted: cited from earlier work.
The conditions of data set [6]: all measured pH values from pH 4 to pH 9; Britton-Robinson buffer; cited from earlier work.
Data set [7] can be described thus: Stated physicochemical properties (pKa, water and ethanol solubility). The conditions noted are these: 109 mg/L vs. 4 mg/L.

Converted amounts (≈) assume the structure as drawn. Where two headings read alike, the source gives them in different places.

As to `COc1ccc(Cl)cc1C(=O)NCCc1ccc(S(=O)(=O)NC(=O)NC2CCCCC2)cc1` [Glibenclamide, 5-chloro-N-[2-[4-(cyclohexylcarbamoylsulfamoyl)phenyl]ethyl]-2-methoxy-benzamide], the solubility in data set [1] (0.9% saline in water, pH 8.07, saline or isotonic, Saline 0.9%, pH 8.070, read-out: GLB mg/ml (glibenclamide in solution)) stood at 0.024 mg/mL (≈ 48.6 µM); in data set [1] (0.9% saline in water, pH 8.44, saline or isotonic, Saline 0.9%, pH 8.440, read-out: GLB mg/ml (glibenclamide in solution)), 0.109 mg/mL (≈ 221 µM); in data set [1] (0.9% saline in water, pH 9.18, saline or isotonic, Saline 0.9%, pH 9.180, read-out: GLB mg/ml (glibenclamide in solution)), 0.435 mg/mL (≈ 881 µM); in data set [1] (0.9% saline in water, pH 9.92, saline or isotonic, Saline 0.9%, pH 9.920, read-out: GLB mg/ml (glibenclamide in solution)), 0.42 mg/mL (≈ 850 µM); in data set [1] (0.9% saline in water, pH 10.48, saline or isotonic, Saline 0.9%, pH 10.480, read-out: GLB mg/ml (glibenclamide in solution)) it was 0.456 mg/mL (≈ 923 µM); in data set [1] (0.9% saline in water, pH 11.06, saline or isotonic, Saline 0.9%, pH 11.060, read-out: GLB mg/ml (glibenclamide in solution)) it was 0.445 mg/mL (≈ 901 µM). For the same compound, the solubility in data set [1] (0.9% saline in water, pH 11.61, saline or isotonic, Saline 0.9%, pH 11.610, read-out: GLB mg/ml (glibenclamide in solution)) was found to be 0.538 mg/mL (≈ 1090 µM); in data set [1] (0.9% saline in water, pH 12.07, saline or isotonic, Saline 0.9%, pH 12.070, read-out: GLB mg/ml (glibenclamide in solution)), 0.476 mg/mL (≈ 964 µM); in data set [1] (2% saline in water, pH 12.1, saline or isotonic, Saline 2%, pH 12.10, read-out: GLB mg/ml (glibenclamide in solution)), 0.216 mg/mL (≈ 437 µM); in data set [1] (2% saline in water, saline or isotonic, Saline 2%, pH 7.24, read-out: GLB mg/ml (glibenclamide in solution)), 0.012 mg/mL (≈ 24.3 µM); in data set [1] (2% saline in water, saline or isotonic, Saline 2%, pH 7.97, read-out: GLB mg/ml (glibenclamide in solution)), 0.028 mg/mL (≈ 56.7 µM); in data set [1] (2% saline in water, saline or isotonic, Saline 2%, pH 8.34, read-out: GLB mg/ml (glibenclamide in solution)), 0.087 mg/mL (≈ 176 µM). The solubility in data set [1] (2% saline in water, saline or isotonic, Saline 2%, pH 8.89, read-out: GLB mg/ml (glibenclamide in solution)) came out at 0.214 mg/mL (≈ 433 µM); in data set [1] (2% saline in water, saline or isotonic, Saline 2%, pH 8.94, read-out: GLB mg/ml (glibenclamide in solution)), 0.233 mg/mL (≈ 472 µM); in data set [1] (2% saline in water, saline or isotonic, Saline 2%, pH 9.49, read-out: GLB mg/ml (glibenclamide in solution)), 0.205 mg/mL (≈ 415 µM); in data set [1] (2% saline in water, saline or isotonic, Saline 2%, pH 10.31, read-out: GLB mg/ml (glibenclamide in solution)) it was 0.215 mg/mL (≈ 435 µM); in data set [1] (2% saline in water, saline or isotonic, Saline 2%, pH 10.98, read-out: GLB mg/ml (glibenclamide in solution)) it was 0.192 mg/mL (≈ 389 µM); in data set [1] (2% saline in water, saline or isotonic, Saline 2%, pH 11.49, read-out: GLB mg/ml (glibenclamide in solution)), 0.194 mg/mL (≈ 393 µM). Also, the solubility in data set [2] (pH 7.36, read-out: GLB mg/ml (glibenclamide in solution)) stood at 0.019 mg/mL (≈ 38.5 µM); in data set [2] (pH 7.55, read-out: GLB mg/ml (glibenclamide in solution)) it was 0.096 mg/mL (≈ 194 µM); in data set [2] (pH 8.65, read-out: GLB mg/ml (glibenclamide in solution)), 0.799 mg/mL (≈ 1620 µM); in data set [2] (pH 8.73, read-out: GLB mg/ml (glibenclamide in solution)), 0.087 mg/mL (≈ 176 µM); in data set [2] (pH 9.13, read-out: GLB mg/ml (glibenclamide in solution)), 0.205 mg/mL (≈ 415 µM); in data set [2] (pH 9.57, read-out: GLB mg/ml (glibenclamide in solution)), 3.97 mg/mL (≈ 8030 µM). Also, the solubility in data set [2] (pH 10.28, read-out: GLB mg/ml (glibenclamide in solution)) is 4.87 mg/mL (≈ 9860 µM); in data set [2] (pH 11.19, read-out: GLB mg/ml (glibenclamide in solution)), 4.67 mg/mL (≈ 9460 µM); in data set [2] (pH 11.44, read-out: GLB mg/ml (glibenclamide in solution)), 4.84 mg/mL (≈ 9800 µM); in data set [2] (pH 12.27, read-out: GLB mg/ml (glibenclamide in solution)), 2.51 mg/mL (≈ 5090 µM); in data set [3], 0.5 mg/mL (≈ 1010 µM); in data set [4] (Britton Robinson buffer in water, aqueous buffer, pH 9.000, read-out: GLB mg/mL (glibenclamide in solution)), 0.14 mg/mL (≈ 283 µM). In addition, the solubility in data set [4] (Britton Robinson buffer in water, pH 9.7, aqueous buffer, pH 9.700, read-out: GLB mg/mL (glibenclamide in solution)) was 0.85 mg/mL (≈ 1720 µM); in data set [4] (Britton Robinson buffer, aqueous buffer, pH 5.3, read-out: GLB mg/mL (glibenclamide in solution)) it was 0.01 mg/mL (≈ 20.2 µM); in data set [4] (Britton Robinson buffer, aqueous buffer, pH 8.000, read-out: GLB mg/mL (glibenclamide in solution)) it was 0.02 mg/mL (≈ 40.5 µM); in data set [4] (Britton Robinson buffer, aqueous buffer, pH 8.3, read-out: GLB mg/mL (glibenclamide in solution)), 0.02 mg/mL (≈ 40.5 µM); in data set [4] (Britton Robinson buffer, pH 6.2, aqueous buffer, pH 6.200, read-out: GLB mg/mL (glibenclamide in solution)), 0.01 mg/mL (≈ 20.2 µM); in data set [4] (Britton Robinson buffer, pH 7.1, aqueous buffer, pH 7.100, read-out: GLB mg/mL (glibenclamide in solution)), 0.01 mg/mL (≈ 20.2 µM). Further, the solubility in data set [4] (Britton Robinson buffer, pH 10.1, aqueous buffer, pH 10.100, read-out: GLB mg/mL (glibenclamide in solution)) is 2.35 mg/mL (≈ 4760 µM); in data set [6], “below 1 mg/mL”. The “GLB mg/ml (glibenclamide in solution)” value was 0.051 mg/mL in data set [2] (pH 7.45); 0.099 mg/mL in data set [2] (pH 7.50); 0.310 mg/mL in data set [2] (pH 8.24); 1.069 mg/mL in data set [2] (pH 8.66); 2.608 mg/mL in data set [2] (pH 9.16); 3.060 mg/mL in data set [2] (pH 9.53). Also, the “GLB mg/ml (glibenclamide in solution)” value in data set [2] (pH 9.74) was determined as 4.103 mg/mL; in data set [2] (pH 11.23), 3.811 mg/mL; in data set [2] (pH 11.30), 3.416 mg/mL; in data set [2] (pH 11.99) it was 1.904 mg/mL. The ethanol solubility in data set [5] is given as 5 mg/mL.
Take `CCOc1cc(CC(=O)N[C@@H](CC(C)C)c2ccccc2N2CCCCC2)ccc1C(=O)O` [Repaglinide]: the water solubility in data set [5] (pH 9) was 0.6 mg/mL (≈ 1330 µM).
As to `CCCCNC(=O)NS(=O)(=O)c1ccc(C)cc1` [Tolbutamide], the “times more soluble in water than glibenclamide” value in data set [7] was 24 times. Further, the water solubility in data set [5] was 0.109 mg/mL (≈ 403 µM).

Source of the values: US8858997B2, “Formulations and methods for lyophilization and lyophilates provided thereby” (Remedy Pharmaceuticals, Inc., priority 2007, dated 2014).
